The source of these data is patent US6476034B2, “Antiviral azaindole derivatives” (priority 2000, dated 2002).

A word on the EC50: it is the concentration needed to bring the measured effect to its halfway point. Low readings indicate an effect from little substance, high ones a need for much substance. One may read the inhibition as the share of the control response that was lost under treatment.

In the test the test system is single-round infectious HIV-1 reporter virus. The test can be described thus: microbe, parasite or virus in culture. Type of test: cell-based. Conditions: for EC50: Human immunodeficiency virus 1, HeLa-CD4/CCR5; for inhibition at 10 µM: Human immunodeficiency virus 1, HeLa-CD4/CCR5, 72 h, read-out: Average % inhibition at or <10 μM; for Average % inhibition at or <10 μM: HeLa CD4 CCR5 cells, luciferase expression 3 days (72 hours) after infection, compounds tested below 10 μM: % inhibition at 10 μM extrapolated with XLfit, mean of at least two experiments.

Take `C[C@H]1CN(C(=O)c2ccccc2)CCN1C(=O)C(=O)c1c[nH]c2ncccc12` [Compound 5f, (S)-N-(benzoyl)-3-methyl-N′-[(7-azaindol-3-yl)-oxoacetyl]-piperazine]: the EC50 was < 1000 nM and the inhibition at 10 µM turned out to be 80%. Taken in the same sequence, the figures for `CCC1CN(C(=O)c2ccccc2)CCN1C(=O)C(=O)c1c[nH]c2ncccc12` (stereo not shown) [Compound 5g, N-(benzoyl)-3-ethyl-N′-[(7-azaindol-3-yl)-oxoacetyl]-piperazine] were < 1000 nM and 70%. Taken in the same sequence, the figures for `CC1(C)CN(C(=O)c2ccccc2)CCN1C(=O)C(=O)c1c[nH]c2ncccc12` [Compound 5h, N-(benzoyl)-3,3-dimethyl-N′-[(7-azaindol-3-yl)-oxoacetyl]-piperazine] were 1000 to 5000 nM and 80%.

On to `C[C@@H]1CN(c2ccccn2)CCN1C(=O)C(=O)c1c[nH]c2ncccc12` [Compound 5k, (R)-N-(pyridin-2-yl)-3-methyl/N′-[(7-azaindol-3-yl)-oxoacetyl]-piperazine], for which the “Average % inhibition at or <10 μM” value is >99%. With `C[C@@H]1CN(c2ccc(Br)o2)CCN1C(=O)C(=O)c1c[nH]c2ncccc12` [Compound 5l, (R)-N-(5-bromo-furan-2-yl)-3-methyl-N′-[(7-azaindol-3-yl)-oxoacetyl]-piperazine], the EC50 is < 1000 nM and the inhibition at 10 µM is > 99%. In the same order, the values of `C[C@@H]1CN(C(=O)c2ccccc2)CCN1C(=O)C(=O)c1c[nH]c2ccncc12` [Compound 5m, (R)-N-(benzoyl)-3-methyl-N′-[(5-azaindol-3-yl)-oxoacetyl]-piperazine] are > 500 nM and 60%. Taken in the same sequence, the figures for `COc1ccnc2[nH]cc(C(=O)C(=O)N3CCN(C(=O)c4c(F)c(F)c(N=[N+]=[N-])c(F)c4F)C[C@H]3C)c12` [Compound 5n, (R)-N-(4-azido-2,3,5,6-tetra-fluorobenzoyl)-3-methyl-N′-[(4-methoxy-7-azaindol-3-yl)-oxoacetyl]-piperazine] were < 1000 nM and 93%. Turning to `O=C(C(=O)N1CCN(C(=O)c2ccccc2)CC1)c1c[nH]c2cnccc12` [Compound 5p, N-(benzoyl)-N′-[(6-azaindol-3-yl)-oxoacetyl]-piperazine], the EC50 is > 500 nM and the inhibition at 10 µM worked out at 40%.

As for `CC1CN(C(=O)c2ccccc2)CCN1C(=O)C(=O)c1c[nH]c2cnccc12` (stereo not shown) [Compound 5q, N-(benzoyl)-3-Methyl-N′[(6-azaindol-3-yl)-oxoacetyl]-piperazine], the EC50 is < 1000 nM and the inhibition at 10 µM is 97%. In the same order, the values of `C[C@@H]1CN(C(=O)c2ccccc2)CCN1C(=O)C(=O)c1c[nH]c2cnccc12` [Compound 5r, (R)-N-(benzoyl)-3-Methyl-N′-[(6-azaindol-3-yl)-oxoacetyl]-piperazine] are < 1000 nM and > 99%. In the same order, the values of `C[C@H]1CN(C(=O)c2ccccc2)CCN1C(=O)C(=O)c1c[nH]c2cnccc12` [Compound 5s, (S)-N-(benzoyl)-3-Methyl-N′-[(6-azaindol-3-yl)-oxoacetyl]-piperazine] are > 500 nM and 56%.

Take `O=C(C(=O)N1CCN(C(=O)c2ccccc2)CC1)c1c[nH]c2c(Cl)nccc12` [Compound 5t, N-(benzoyl)-N′-[(7-Chloro-6-azaindol-3-yl)-oxoacetyl]-piperazine]: the EC50 is < 1000 nM and the inhibition at 10 µM was > 99%.

Regarding `C[C@@H]1CN(C(=O)c2ccccc2)CCN1C(=O)C(=O)c1c[nH]c2c(Cl)nccc12` [Compound 5u, (R)-N-(benzoyl)-3-Methyl-N′-[(7-Chloro-6-azaindol-3-yl)-oxoacetyl]-piperazine], the EC50 is < 1000 nM and the inhibition at 10 µM was determined as 99%. With `COc1nccc2c(C(=O)C(=O)N3CCN(C(=O)c4ccccc4)C[C@H]3C)c[nH]c12` [Compound 5v, (R)-N-(benzoyl)-3-Methyl-N′-[(7-Methoxy-6-azaindol-3-yl)-oxoacetyl]-piperazine], the EC50 was < 1000 nM and the inhibition at 10 µM was > 99%. In the same order, the values of `C[C@@H]1CN(C(=O)c2ccccc2)CCN1C(=O)C(=O)c1c[nH]c2cccnc12` [Compound 5w, (R)-N-(benzoyl)-3-Methyl-N′-[(4-azaindol-3-yl)-oxoacetyl]-piperazine] are < 1000 nM and 98%. In the same order, the values of `Cc1ccnc2c(C(=O)C(=O)N3CCN(C(=O)c4ccccc4)C[C@H]3C)c[nH]c12` [Compound 5x, (R)-N-(benzoyl)-3-Methyl-N′-[(7-Methyl-4-azaindol-3-yl)-oxoacetyl]-piperazine] are < 1000 nM and 99%.

For the molecule `C[C@@H]1CN(C(=O)c2ccccc2)CCN1C(=O)C(=O)c1c[nH]c2c(Cl)ccnc12` [Compound 5y, (R)-N-(benzoyl)-3-Methyl-N′-[(7-Chloro-4-azaindol-3-yl)-oxoacetyl]-piperazine], the EC50 is < 1000 nM and the inhibition at 10 µM was > 99%.

In the case of `COc1ccnc2c(C(=O)C(=O)N3CCN(C(=O)c4ccccc4)C[C@H]3C)cn(C)c12` [Compound 5z, (R)-N-(benzoyl)-3-Methyl-N′-[(7-Methoxy-1-methyl-4-azaindol-3-yl)-oxoacetyl]-piperazine], the EC50 was < 1000 nM and the inhibition at 10 µM was determined as 97%.

On to `C[C@@H]1CN(C(=O)c2ccccc2)CCN1C(=O)C(=O)c1c[nH]c2c1ccc[n+]2[O-]` [Compound 8a, (R)-N-(benzoyl)-3-methyl-N′-[(7-oxide-7-azaindol-3-yl)-oxoacetyl]-piperazine], for which the “Average % inhibition at or <10 μM” value was 90%. The same measure, in the same setting: with `C[C@@H]1CN(C(=O)c2ccccc2)CCN1C(=O)C(=O)c1c[nH]c2c[n+]([O-])ccc12` [Compound 8b, (R)-N-(benzoyl)-3-methyl-N′-[(6-oxide-6-azaindol-3-yl)-oxoacetyl]-piperazine] the figure was 91%.

With `C[C@@H]1CN(C(=O)c2ccccc2)CCN1C(=O)C(=O)c1c[nH]c2nccc(Cl)c12` [Compound 9a, (R)-N-(benzoyl)-3-methyl-N′-[(4-chloro-7-azaindol-3-yl)-oxoacetyl]-piperazine], the EC50 is < 1000 nM and the inhibition at 10 µM is > 99%. In the same order, the values of `C[C@@H]1CN(C(=O)c2ccccc2)CCN1C(=O)C(=O)c1c[nH]c2nc(Cl)ccc12` [Compound 9b, (R)-N-(benzoyl)-3-methyl-N′-[(6-chloro-7-azaindol-3-yl)-oxoacetyl]-piperazine] are < 1000 nM and > 99%. As for `C[C@@H]1CN(C(=O)c2ccccc2)CCN1C(=O)C(=O)c1c[nH]c2nc(F)cc([N+](=O)[O-])c12` [Compound 10a, (R)-N-(benzoyl)-3-methyl-N′-[(4-nitro-6-fluoro-7-azaindol-3-yl)-oxoacetyl]-piperazine], the EC50 is < 1000 nM and the inhibition at 10 µM was > 99%.

On to `C[C@@H]1CN(C(=O)c2ccccc2)CCN1C(=O)C(=O)c1c[nH]c2nc(C#N)ccc12` [Compound 12a, (R)-N-(benzoyl)-3-methyl-N′-[(6-cyano-7-azaindol-3-yl)-oxoacetyl]-piperazine], for which the EC50 was < 1000 nM and the inhibition at 10 µM is > 99%.

For `CC(=O)Oc1ccc2c(C(=O)C(=O)N3CCN(C(=O)c4ccccc4)C[C@H]3C)cn(C(C)=O)c2n1` [Compound 13a, (R)-N-(benzoyl)-3-methyl-N′-[(1-acetyl-6-acetoxy-7-azaindol-3-yl)-oxoacetyl]-piperazine], the EC50 was < 1000 nM and the inhibition at 10 µM was > 99%. Turning to `C[C@@H]1CN(C(=O)c2ccccc2)CCN1C(=O)C(=O)c1c[nH]c2nc(O)ccc12` [Compound 14a, (R)-N-(benzoyl)-3-methyl-N′-[(6-hydroxyl-7-azaindol-3-yl)-oxoacetyl]-piperazine], the inhibition at 10 µM was > 99%. For the molecule `C[C@@H]1CN(C(=O)c2ccccc2)CCN1C(=O)C(=O)c1c[nH]c2c1c([N+](=O)[O-])cc[n+]2[O-]` [Compound 15a, (R)-N-(benzoyl)-3-methyl-N′-[(4-nitro-7-oxide-7-azaindol-3-yl)-oxoacetyl]-piperazine], the “Average % inhibition at or <10 μM” value was 70%. The same measure, in the same setting: under `COc1cc[n+]([O-])c2[nH]cc(C(=O)C(=O)N3CCN(C(=O)c4ccccc4)C[C@H]3C)c12` [Compound 16a, (R)-N-(benzoyl)-3-methyl-N′-[(4-methoxy-7-oxide-7-azaindol-3-yl)-oxoacetyl]-piperazine] stands >99%; under `CCOc1cc[n+]([O-])c2[nH]cc(C(=O)C(=O)N3CCN(C(=O)c4ccccc4)C[C@H]3C)c12` [Compound 16d, (R)-N-(benzoyl)-3-methyl-N′-[(4-ethoxy-7-oxide-7-azaindol-3-yl)-oxoacetyl]-piperazine], 88%. Turning to `CCCSc1cc[n+]([O-])c2[nH]cc(C(=O)C(=O)N3CCN(C(=O)c4ccccc4)C[C@H]3C)c12` [Compound 16e, (R)-N-(benzoyl)-3-methyl-N′-[(4-propylthio-7-oxide-7-azaindol-3-yl)-oxoacetyl]-piperazine], the “Average % inhibition at or <10 μM” value is reported as 50%. In the case of `COc1ccnc2[nH]cc(C(=O)C(=O)N3CCN(C(=O)c4ccccc4)C[C@H]3C)c12` [Compound 17a, (R)-N-(benzoyl)-3-methyl-N′-[(4-methoxy-7-azaindol-3-yl)-oxoacetyl]-piperazine], the EC50 was < 1000 nM and the inhibition at 10 µM was > 99%. In the same order, the values of `C[C@@H]1CN(C(=O)c2ccccc2)CCN1C(=O)C(=O)c1c[nH]c2nccc(OCC(F)(F)F)c12` [Compound 17b, (R)-N-(benzoyl)-3-methyl-N′-[(4-(2,2,2-trifluoroethoxy)-7-azaindol-3-yl)-oxoacetyl]-piperazine] are < 1000 nM and 99%. Taken in the same sequence, the figures for `CC(C)Oc1ccnc2[nH]cc(C(=O)C(=O)N3CCN(C(=O)c4ccccc4)C[C@H]3C)c12` [Compound 17c, (R)-N-(benzoyl)-3-methyl-N′-[(4-(1-methylethoxy)-7-azaindol-3-yl)-oxoacetyl]-piperazine] were < 1000 nM and > 99%.
